Measurements from the supplement of paper PMC8612539.
≈ marks a conversion by molar mass, not a printed value.

System: Escherichia coli
Assay: minimum inhibitory concentration (MIC)
Description: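 Broth microdilution MIC (Sensititre BOPO7F bovine plate, CLSI methods) of 19 antimicrobials against field isolates of P. multocida, M. haemolytica, H. somni (deep nasopharyngeal swabs) and E. coli, Enterococcus spp. (rectal swabs) from weaned dairy heifers. Incubation 16-24 h at 35 C. MIC is the lowest concentration preventing visible growth. Values with <= or > lie at the tested range limits. Trimethoprim-sulfamethoxazole is given as the trimethoprim component of a 1:19 mixture.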

NC[C@@H]1O[C@H](O[C@H]2[C@@H](O)[C@H](O[C@@H]3[C@@H](O)[C@H](N)C[C@H](N)[C@H]3O[C@H]3O[C@H](CN)[C@@H](O)[C@H](O)[C@H]3N)O[C@@H]2CO)[C@H](N)[C@@H](O)[C@@H]1O [Neomycin]
Conditions | minimum inhibitory concentration [µg/mL]
isolate (source animal id): 8 | 32 (≈ 52.1 µM)
isolate (source animal id): 9 | ≤ 4
isolate (source animal id): 10 | > 32
isolate (source animal id): 11 | ≤ 4
isolate (source animal id): 12 | ≤ 4
isolate (source animal id): 13 | ≤ 4
isolate (source animal id): 14 | 32 (≈ 52.1 µM)
isolate (source animal id): 15 | ≤ 4
isolate (source animal id): 16 | ≤ 4
isolate (source animal id): 98 | ≤ 4
isolate (source animal id): 99 | ≤ 4
isolate (source animal id): 100 | ≤ 4
isolate (source animal id): 101 | ≤ 4
isolate (source animal id): 102 | ≤ 4
isolate (source animal id): 103 | ≤ 4
isolate (source animal id): 104 | ≤ 4
isolate (source animal id): 105 | ≤ 4
isolate (source animal id): 106 | > 32
isolate (source animal id): 107 | ≤ 4
isolate (source animal id): 108 | ≤ 4
isolate (source animal id): 109 | ≤ 4
isolate (source animal id): 110 | ≤ 4
isolate (source animal id): 111 | > 32
isolate (source animal id): 112 | > 32
isolate (source animal id): 113 | ≤ 4
isolate (source animal id): 114 | ≤ 4
isolate (source animal id): 115 | > 32
isolate (source animal id): 116 | ≤ 4
isolate (source animal id): 117 | > 32
isolate (source animal id): 118 | ≤ 4
isolate (source animal id): 119 | ≤ 4
isolate (source animal id): 120 | > 32
isolate (source animal id): 121 | ≤ 4
isolate (source animal id): 122 | > 32
isolate (source animal id): 123 | ≤ 4
isolate (source animal id): 124 | ≤ 4
isolate (source animal id): 125 | ≤ 4
isolate (source animal id): 126 | ≤ 4
isolate (source animal id): 127 | ≤ 4
isolate (source animal id): 128 | ≤ 4
isolate (source animal id): 129 | ≤ 4
isolate (source animal id): 130 | ≤ 4
isolate (source animal id): 131 | ≤ 4
isolate (source animal id): 132 | > 32
isolate (source animal id): 133 | ≤ 4
isolate (source animal id): 134 | ≤ 4
isolate (source animal id): 135 | ≤ 4
isolate (source animal id): 136 | ≤ 4
isolate (source animal id): 137 | > 32
isolate (source animal id): 138 | ≤ 4
isolate (source animal id): 139 | ≤ 4
isolate (source animal id): 140 | ≤ 4
isolate (source animal id): 141 | > 32
isolate (source animal id): 142 | ≤ 4
isolate (source animal id): 143 | > 32
isolate (source animal id): 144 | ≤ 4
isolate (source animal id): 145 | > 32
isolate (source animal id): 146 | ≤ 4
isolate (source animal id): 147 | > 32
isolate (source animal id): 148 | ≤ 4
isolate (source animal id): 149 | ≤ 4
isolate (source animal id): 150 | > 32
isolate (source animal id): 151 | ≤ 4
isolate (source animal id): 152 | ≤ 4
isolate (source animal id): 153 | ≤ 4
isolate (source animal id): 154 | ≤ 4
isolate (source animal id): 155 | 32 (≈ 52.1 µM)
isolate (source animal id): 156 | > 32
isolate (source animal id): 157 | ≤ 4
isolate (source animal id): 158 | > 32
isolate (source animal id): 159 | ≤ 4
isolate (source animal id): 160 | > 32
isolate (source animal id): 161 | > 32
isolate (source animal id): 162 | ≤ 4
isolate (source animal id): 163 | ≤ 4
isolate (source animal id): 164 | ≤ 4
isolate (source animal id): 165 | 32 (≈ 52.1 µM)
isolate (source animal id): 166 | ≤ 4
isolate (source animal id): 167 | ≤ 4
isolate (source animal id): 168 | ≤ 4
isolate (source animal id): 169 | ≤ 4
isolate (source animal id): 170 | ≤ 4
isolate (source animal id): 171 | ≤ 4
isolate (source animal id): 172 | ≤ 4
isolate (source animal id): 173 | ≤ 4
isolate (source animal id): 174 | ≤ 4
isolate (source animal id): 175 | ≤ 4
isolate (source animal id): 176 | ≤ 4
isolate (source animal id): 177 | ≤ 4
isolate (source animal id): 178 | ≤ 4
isolate (source animal id): 179 | ≤ 4
isolate (source animal id): 180 | ≤ 4
isolate (source animal id): 181 | 32 (≈ 52.1 µM)
isolate (source animal id): 182 | ≤ 4
isolate (source animal id): 183 | ≤ 4
isolate (source animal id): 184 | ≤ 4
isolate (source animal id): 185 | ≤ 4
isolate (source animal id): 186 | ≤ 4
isolate (source animal id): 187 | 32 (≈ 52.1 µM)
isolate (source animal id): 188 | ≤ 4

C=C[C@]1(C)C[C@@H](OC(=O)CSCCN(CC)CC)[C@]2(C)[C@H](C)CC[C@]3(CCC(=O)[C@H]32)[C@@H](C)[C@@H]1O [Tiamulin]
Conditions | minimum inhibitory concentration [µg/mL]
isolate (source animal id): 8 | 32 (≈ 64.8 µM)
isolate (source animal id): 9 | > 32
isolate (source animal id): 10 | > 32
isolate (source animal id): 11 | > 32
isolate (source animal id): 12 | > 32
isolate (source animal id): 13 | > 32
isolate (source animal id): 14 | > 32
isolate (source animal id): 15 | > 32
isolate (source animal id): 16 | > 32
isolate (source animal id): 98 | > 32
isolate (source animal id): 99 | > 32
isolate (source animal id): 100 | 32 (≈ 64.8 µM)
isolate (source animal id): 101 | > 32
isolate (source animal id): 102 | > 32
isolate (source animal id): 103 | > 32
isolate (source animal id): 104 | > 32
isolate (source animal id): 105 | > 32
isolate (source animal id): 106 | > 32
isolate (source animal id): 107 | > 32
isolate (source animal id): 108 | > 32
isolate (source animal id): 109 | > 32
isolate (source animal id): 110 | > 32
isolate (source animal id): 111 | > 32
isolate (source animal id): 112 | 32 (≈ 64.8 µM)
isolate (source animal id): 113 | > 32
isolate (source animal id): 114 | > 32
isolate (source animal id): 115 | > 32
isolate (source animal id): 116 | 32 (≈ 64.8 µM)
isolate (source animal id): 117 | > 32
isolate (source animal id): 118 | > 32
isolate (source animal id): 119 | > 32
isolate (source animal id): 120 | > 32
isolate (source animal id): 121 | > 32
isolate (source animal id): 122 | > 32
isolate (source animal id): 123 | > 32
isolate (source animal id): 124 | 32 (≈ 64.8 µM)
isolate (source animal id): 125 | 16 (≈ 32.4 µM)
isolate (source animal id): 126 | > 32
isolate (source animal id): 127 | > 32
isolate (source animal id): 128 | 32 (≈ 64.8 µM)
isolate (source animal id): 129 | 32 (≈ 64.8 µM)
isolate (source animal id): 130 | > 32
isolate (source animal id): 131 | > 32
isolate (source animal id): 132 | > 32
isolate (source animal id): 133 | > 32
isolate (source animal id): 134 | > 32
isolate (source animal id): 135 | > 32
isolate (source animal id): 136 | > 32
isolate (source animal id): 137 | > 32
isolate (source animal id): 138 | 32 (≈ 64.8 µM)
isolate (source animal id): 139 | > 32
isolate (source animal id): 140 | > 32
isolate (source animal id): 141 | > 32
isolate (source animal id): 142 | > 32
isolate (source animal id): 143 | > 32
isolate (source animal id): 144 | > 32
isolate (source animal id): 145 | > 32
isolate (source animal id): 146 | > 32
isolate (source animal id): 147 | 32 (≈ 64.8 µM)
isolate (source animal id): 148 | > 32
isolate (source animal id): 149 | > 32
isolate (source animal id): 150 | > 32
isolate (source animal id): 151 | > 32
isolate (source animal id): 152 | 32 (≈ 64.8 µM)
isolate (source animal id): 153 | > 32
isolate (source animal id): 154 | > 32
isolate (source animal id): 155 | 32 (≈ 64.8 µM)
isolate (source animal id): 156 | > 32
isolate (source animal id): 157 | > 32
isolate (source animal id): 158 | > 32
isolate (source animal id): 159 | > 32
isolate (source animal id): 160 | > 32
isolate (source animal id): 161 | > 32
isolate (source animal id): 162 | > 32
isolate (source animal id): 163 | > 32
isolate (source animal id): 164 | > 32
isolate (source animal id): 165 | > 32
isolate (source animal id): 166 | > 32
isolate (source animal id): 167 | > 32
isolate (source animal id): 168 | 32 (≈ 64.8 µM)
isolate (source animal id): 169 | > 32
isolate (source animal id): 170 | 32 (≈ 64.8 µM)
isolate (source animal id): 171 | > 32
isolate (source animal id): 172 | > 32
isolate (source animal id): 173 | > 32
isolate (source animal id): 174 | > 32
isolate (source animal id): 175 | > 32
isolate (source animal id): 176 | > 32
isolate (source animal id): 177 | > 32
isolate (source animal id): 178 | > 32
isolate (source animal id): 179 | > 32
isolate (source animal id): 180 | > 32
isolate (source animal id): 181 | > 32
isolate (source animal id): 182 | > 32
isolate (source animal id): 183 | > 32
isolate (source animal id): 184 | > 32
isolate (source animal id): 185 | > 32
isolate (source animal id): 186 | > 32
isolate (source animal id): 187 | 32 (≈ 64.8 µM)
isolate (source animal id): 188 | > 32
